Data from paper PMC5218480 (PLoS ONE, 2017).

Tested on: MV-4-11 cells
Assay: Gene expression microarray analysis (Affymetrix PrimeView) and GSEA
Assay type: cell-based, human
Parameters: RFU PODN (11730768_x_at) / Fold change /veh PODN (11730768_x_at) / RFU LINC00158 (11744669_a_at) / Fold change /veh LINC00158 (11744669_a_at) / RFU DUSP10 (11751237_a_at) / Fold change /veh DUSP10 (11751237_a_at) / RFU ID3 (11757404_x_at) / Fold change /veh ID3 (11757404_x_at) / RFU PLEKHG5 (11737974_s_at) / Fold change /veh PLEKHG5 (11737974_s_at) / RFU LRRC4B (11730491_at) / Fold change /veh LRRC4B (11730491_at) / RFU GIMAP4 (11747438_a_at) / Fold change /veh GIMAP4 (11747438_a_at) / RFU KRT8 (11758183_x_at) / Fold change /veh KRT8 (11758183_x_at) / RFU CNN1 (11734310_a_at) / Fold change /veh CNN1 (11734310_a_at) / RFU VPS37D (11726825_at) / Fold change /veh VPS37D (11726825_at) / RFU C10orf10 (11716522_x_at) / Fold change /veh C10orf10 (11716522_x_at) / RFU KIR2DL2 /// KIR2DL4 /// KIR2DL5A /// KIR2DL5B /// KIR2DS1 /// KIR2DS2 /// KIR2DS3 /// KIR2DS4 /// KIR3DL3 /// KIR3DL3 /// KIR3DS1 (11738374_at) / Fold change /veh KIR2DL2 /// KIR2DL4 /// KIR2DL5A /// KIR2DL5B /// KIR2DS1 /// KIR2DS2 /// KIR2DS3 /// KIR2DS4 /// KIR3DL3 /// KIR3DL3 /// KIR3DS1 (11738374_at) / RFU C1QL1 (11718748_at) / Fold change /veh C1QL1 (11718748_at) / RFU TMPRSS4 (11747572_a_at) / Fold change /veh TMPRSS4 (11747572_a_at) / RFU HAMP (11756126_x_at) / Fold change /veh HAMP (11756126_x_at) / RFU RNFT2 (11725882_a_at) / Fold change /veh RNFT2 (11725882_a_at) / RFU NR4A2 (11747474_a_at) / Fold change /veh NR4A2 (11747474_a_at) / RFU ABCC12 (11746883_a_at) / Fold change /veh ABCC12 (11746883_a_at) / RFU TMEM136 (11760407_x_at) / Fold change /veh TMEM136 (11760407_x_at) / RFU CLDN22 /// WWC2 (11732394_at) / Fold change /veh CLDN22 /// WWC2 (11732394_at) / RFU HLA-DPB1 (11760878_x_at) / Fold change /veh HLA-DPB1 (11760878_x_at) / RFU SPINT1 (11716480_a_at) / Fold change /veh SPINT1 (11716480_a_at) / RFU GAP43 (11754022_s_at) / Fold change /veh GAP43 (11754022_s_at) / RFU A4GNT (11735810_at) / Fold change /veh A4GNT (11735810_at) / RFU PRB3 (11715151_x_at) / Fold change /veh PRB3 (11715151_x_at) / RFU TUBB4B (11761932_at) / Fold change /veh TUBB4B (11761932_at) / RFU CAPN14 (11732068_a_at) / Fold change /veh CAPN14 (11732068_a_at) / RFU TMCC2 (11721928_a_at) / Fold change /veh TMCC2 (11721928_a_at) / RFU IRGQ (11745062_a_at) / Fold change /veh IRGQ (11745062_a_at) / RFU FAM174B (11720279_a_at) / Fold change /veh FAM174B (11720279_a_at) / RFU TMPRSS4 (11748680_a_at) / Fold change /veh TMPRSS4 (11748680_a_at) / RFU FAM212B (11763350_a_at) / Fold change /veh FAM212B (11763350_a_at) / RFU PLEKHG5 (11743358_a_at) / Fold change /veh PLEKHG5 (11743358_a_at) / RFU ZSCAN30 (11745921_a_at) / Fold change /veh ZSCAN30 (11745921_a_at) / RFU CMKLR1 (11741424_a_at) / Fold change /veh CMKLR1 (11741424_a_at) / RFU LOC101060620 /// MAPK8IP1 (11723275_at) / Fold change /veh LOC101060620 /// MAPK8IP1 (11723275_at) / RFU SPTSSB (11747773_x_at) / Fold change /veh SPTSSB (11747773_x_at) / RFU PRSS12 (11739890_at) / Fold change /veh PRSS12 (11739890_at) / RFU BIN1 (11741810_x_at) / Fold change /veh BIN1 (11741810_x_at) / RFU WNT11 (11732464_a_at) / Fold change /veh WNT11 (11732464_a_at) / RFU C10orf10 (11716521_a_at) / Fold change /veh C10orf10 (11716521_a_at) / RFU C5orf56 (11738089_at) / Fold change /veh C5orf56 (11738089_at) / RFU CYB561 (11721691_x_at) / Fold change /veh CYB561 (11721691_x_at) / RFU ANKRD19P (11752326_a_at) / Fold change /veh ANKRD19P (11752326_a_at) / RFU OR2T12 /// OR2T33 /// OR2T8 (11738714_s_at) / Fold change /veh OR2T12 /// OR2T33 /// OR2T8 (11738714_s_at) / RFU VCAN (11748164_a_at) / Fold change /veh VCAN (11748164_a_at) / RFU JSRP1 (11732532_at) / Fold change /veh JSRP1 (11732532_at) / RFU KRTAP10-11 (11738290_x_at) / Fold change /veh KRTAP10-11 (11738290_x_at) / RFU MYO3A (11730013_a_at) / Fold change /veh MYO3A (11730013_a_at) / RFU EBF3 (11725865_a_at) / Fold change /veh EBF3 (11725865_a_at) / RFU CAMK2N1 (11719241_x_at) / Fold change /veh CAMK2N1 (11719241_x_at) / RFU C5orf56 (11738088_a_at) / Fold change /veh C5orf56 (11738088_a_at) / RFU OLFML3 (11715873_a_at) / Fold change /veh OLFML3 (11715873_a_at) / RFU LOC100653217 /// NTM (11731650_a_at) / Fold change /veh LOC100653217 /// NTM (11731650_a_at) / RFU MAPK11 (11762145_a_at) / Fold change /veh MAPK11 (11762145_a_at) / RFU FIZ1 (11724087_x_at) / Fold change /veh FIZ1 (11724087_x_at) / RFU OASL (11726364_x_at) / Fold change /veh OASL (11726364_x_at) / RFU SOX15 (11748057_x_at) / Fold change /veh SOX15 (11748057_x_at) / RFU CD79A (11719716_a_at) / Fold change /veh CD79A (11719716_a_at) / RFU HIST1H1D (11736915_at) / Fold change /veh HIST1H1D (11736915_at) / RFU CASKIN2 (11723855_a_at) / Fold change /veh CASKIN2 (11723855_a_at) / RFU LOC730098 (11760151_x_at) / Fold change /veh LOC730098 (11760151_x_at) / RFU OR4N2 (11742367_at) / Fold change /veh OR4N2 (11742367_at) / RFU PRRT2 (11749266_a_at) / Fold change /veh PRRT2 (11749266_a_at) / RFU SNX32 (11753110_a_at) / Fold change /veh SNX32 (11753110_a_at) / RFU CDHR5 (11726645_a_at) / Fold change /veh CDHR5 (11726645_a_at) / RFU RCAN1 (11760418_a_at) / Fold change /veh RCAN1 (11760418_a_at) / RFU FAM167A (11723789_a_at) / Fold change /veh FAM167A (11723789_a_at) / RFU FAM26E (11764081_at) / Fold change /veh FAM26E (11764081_at) / RFU ISYNA1 (11749810_s_at) / Fold change /veh ISYNA1 (11749810_s_at) / RFU ACY1 (11761880_at) / Fold change /veh ACY1 (11761880_at) / RFU 11764098_at / Fold change /veh 11764098_at / RFU SAMD14 (11745864_x_at) / Fold change /veh SAMD14 (11745864_x_at) / RFU NPB (11741838_a_at) / Fold change /veh NPB (11741838_a_at) / RFU TMPRSS6 (11731388_a_at) / Fold change /veh TMPRSS6 (11731388_a_at) / RFU KRTAP10-2 (11738614_at) / Fold change /veh KRTAP10-2 (11738614_at) / RFU ARHGAP8 /// PRR5-ARHGAP8 (11727945_x_at) / Fold change /veh ARHGAP8 /// PRR5-ARHGAP8 (11727945_x_at) / RFU KRTAP5-7 /// NADSYN1 (11734609_at) / Fold change /veh KRTAP5-7 /// NADSYN1 (11734609_at) / RFU RASL12 (11751679_a_at) / Fold change /veh RASL12 (11751679_a_at) / RFU CDKN2B (11736163_a_at) / Fold change /veh CDKN2B (11736163_a_at) / RFU PRF1 (11729649_at) / Fold change /veh PRF1 (11729649_at) / RFU, ZNF638 /// ZNF638-IT1 / Fold change vs veh, ZNF638 /// ZNF638-IT1 / RFU, PANK3 / Fold change vs veh, PANK3 / RFU, SH3YL1 / Fold change vs veh, SH3YL1 / RFU, ZEB2 / Fold change vs veh, ZEB2 / RFU, NRIP1 / Fold change vs veh, NRIP1 / RFU, PTTG1IP / Fold change vs veh, PTTG1IP / RFU, CAPN2 / Fold change vs veh, CAPN2 / RFU, MED14 / Fold change vs veh, MED14 / RFU, SNORA58 / Fold change vs veh, SNORA58 / RFU, C1orf63 / Fold change vs veh, C1orf63 / RFU, LRRFIP1 / Fold change vs veh, LRRFIP1 / RFU, NDUFAF7 / Fold change vs veh, NDUFAF7 / RFU, SLC12A2 / Fold change vs veh, SLC12A2 / RFU, IBTK / Fold change vs veh, IBTK / RFU, ESF1 / Fold change vs veh, ESF1 / Fold change vs veh, TMEM50B / RFU, TAOK1 / Fold change vs veh, TAOK1 / RFU, ACBD3 / Fold change vs veh, ACBD3 / RFU, TMA16 / Fold change vs veh, TMA16 / RFU, RWDD3 / Fold change vs veh, RWDD3 / RFU, BCAT1 / Fold change vs veh, BCAT1 / RFU, EDEM3 / Fold change vs veh, EDEM3 / RFU, TMEM33 / Fold change vs veh, TMEM33 / RFU, WDR75 / Fold change vs veh, WDR75 / RFU, AHCTF1 / Fold change vs veh, AHCTF1 / RFU, TFRC / Fold change vs veh, TFRC / RFU, ZDHHC17 / Fold change vs veh, ZDHHC17 / RFU, NOM1 / Fold change vs veh, NOM1 / RFU, ARL8B / Fold change vs veh, ARL8B / RFU, ZBTB11 / Fold change vs veh, ZBTB11 / RFU, TAMM41 / Fold change vs veh, TAMM41 / RFU, KIAA1704 /// LOC100996395 / Fold change vs veh, KIAA1704 /// LOC100996395 / RFU, ING1 / Fold change vs veh, ING1 / RFU, TRMT61B / Fold change vs veh, TRMT61B / RFU, FUBP3 / Fold change vs veh, FUBP3 / RFU, TP53 / Fold change vs veh, TP53 / RFU, TNKS2 / Fold change vs veh, TNKS2 / RFU, ZFP14 / Fold change vs veh, ZFP14 / RFU, ACTR2 / Fold change vs veh, ACTR2 / RFU, PPP3R1 / Fold change vs veh, PPP3R1 / RFU, PIK3R1 / Fold change vs veh, PIK3R1 / RFU, HNRNPA1 / Fold change vs veh, HNRNPA1 / RFU, RNF170 / Fold change vs veh, RNF170 / RFU, ZNF28 / Fold change vs veh, ZNF28 / RFU, RNGTT / Fold change vs veh, RNGTT / RFU, OGT / Fold change vs veh, OGT / RFU, BRD1 / Fold change vs veh, BRD1 / RFU, MARS / Fold change vs veh, MARS / RFU, ZNF655 / Fold change vs veh, ZNF655 / RFU, FAHD1 / Fold change vs veh, FAHD1 / RFU, BDP1 / Fold change vs veh, BDP1 / RFU, LRRCC1 / Fold change vs veh, LRRCC1 / RFU, ARID1A / Fold change vs veh, ARID1A / RFU, ZNF146 / Fold change vs veh, ZNF146 / RFU, ZNF330 / Fold change vs veh, ZNF330 / RFU, GPN3 / Fold change vs veh, GPN3 / RFU, C9orf123 / Fold change vs veh, C9orf123 / RFU, N4BP2L2 / Fold change vs veh, N4BP2L2 / RFU, ARFIP1 / Fold change vs veh, ARFIP1 / RFU, FAM179B / Fold change vs veh, FAM179B / RFU, BCL10 / Fold change vs veh, BCL10 / RFU, UHRF1BP1L / Fold change vs veh, UHRF1BP1L / RFU, BET1 / Fold change vs veh, BET1 / RFU, CNOT2 / Fold change vs veh, CNOT2 / RFU, ZNF268 / Fold change vs veh, ZNF268 / Fold change vs veh, ZNF507 / RFU, DGCR2 / Fold change vs veh, DGCR2 / RFU, WDSUB1 / Fold change vs veh, WDSUB1 / Fold change vs veh, HSP90B1 /// MIR3652 / RFU, ADSS / Fold change vs veh, ADSS / RFU, GK / Fold change vs veh, GK / RFU, ZNF148 / Fold change vs veh, ZNF148 / RFU, TAF9 / Fold change vs veh, TAF9 / RFU, SLC1A5 / Fold change vs veh, SLC1A5 / RFU, SLMO2 / Fold change vs veh, SLMO2 / RFU, ABCC4 / Fold change vs veh, ABCC4 / RFU, LOC101060439 /// RAP1B / Fold change vs veh, LOC101060439 /// RAP1B / RFU, RFX7 / Fold change vs veh, RFX7 / RFU, GTPBP10 / Fold change vs veh, GTPBP10 / RFU, CNEP1R1 / Fold change vs veh, CNEP1R1 / RFU, BIVM-ERCC5 /// ERCC5 / Fold change vs veh, BIVM-ERCC5 /// ERCC5 / RFU, ILF3 / Fold change vs veh, ILF3 / RFU 11762660_at / Fold change /veh 11762660_at / RFU VCAN (11757783_s_at) / Fold change /veh VCAN (11757783_s_at) / RFU DDX43 (11728927_at) / Fold change /veh DDX43 (11728927_at) / RFU KRT8 (11758188_x_at) / Fold change /veh KRT8 (11758188_x_at) / RFU NKD1 (11759106_at) / Fold change /veh NKD1 (11759106_at) / RFU SRD5A1 (11742802_a_at) / Fold change /veh SRD5A1 (11742802_a_at) / RFU TPSAB1 /// TPSB2 (11721975_s_at) / Fold change /veh TPSAB1 /// TPSB2 (11721975_s_at) / RFU GSTM3 (11746129_a_at) / Fold change /veh GSTM3 (11746129_a_at) / RFU IL23R (11737362_x_at) / Fold change /veh IL23R (11737362_x_at) / RFU TMEM51 (11727254_a_at) / Fold change /veh TMEM51 (11727254_a_at) / RFU PIWIL2 (11732686_x_at) / Fold change /veh PIWIL2 (11732686_x_at) / RFU ORM1 (11744905_x_at) / Fold change /veh ORM1 (11744905_x_at) / RFU CCDC152 (11743942_at) / Fold change /veh CCDC152 (11743942_at) / RFU ECM1 (11717891_a_at) / Fold change /veh ECM1 (11717891_a_at) / RFU IL23R (11748794_a_at) / Fold change /veh IL23R (11748794_a_at) / RFU TNFAIP8L3 (11732012_x_at) / Fold change /veh TNFAIP8L3 (11732012_x_at) / RFU MBOAT4 (11741988_at) / Fold change /veh MBOAT4 (11741988_at) / RFU 11764193_at / Fold change /veh 11764193_at / RFU TMEM53 (11763286_at) / Fold change /veh TMEM53 (11763286_at) / RFU MAGEB2 (11727129_at) / Fold change /veh MAGEB2 (11727129_at) / RFU TMEM200A (11744735_a_at) / Fold change /veh TMEM200A (11744735_a_at) / RFU CCDC152 (11751479_a_at) / Fold change /veh CCDC152 (11751479_a_at) / RFU FAM211A (11726209_a_at) / Fold change /veh FAM211A (11726209_a_at) / RFU RGS16 (11746705_a_at) / Fold change /veh RGS16 (11746705_a_at) / RFU VCAN (11755009_s_at) / Fold change /veh VCAN (11755009_s_at) / RFU RHOB (11743442_s_at) / Fold change /veh RHOB (11743442_s_at) / RFU RGS16 (11720943_a_at) / Fold change /veh RGS16 (11720943_a_at) / RFU RGS16 (11720944_at) / Fold change /veh RGS16 (11720944_at) / RFU, VPS4B / Fold change vs veh, VPS4B / RFU, CREB1 / Fold change vs veh, CREB1 / RFU, DNAJC13 / Fold change vs veh, DNAJC13 / RFU, GNAQ / Fold change vs veh, GNAQ / RFU, CDK5R1 / Fold change vs veh, CDK5R1 / RFU, ZRANB3 / Fold change vs veh, ZRANB3 / RFU, CUL4A / Fold change vs veh, CUL4A / RFU, CCNY / Fold change vs veh, CCNY / RFU, UFL1 / Fold change vs veh, UFL1 / RFU, COG3 / Fold change vs veh, COG3 / RFU, DIAPH2 / Fold change vs veh, DIAPH2 / RFU, SKA2 / Fold change vs veh, SKA2 / RFU, AFF3 / Fold change vs veh, AFF3 / RFU, LMF1 / Fold change vs veh, LMF1 / RFU, IPO11 / Fold change vs veh, IPO11 / RFU, DFFB / Fold change vs veh, DFFB / RFU, FOXP1 / Fold change vs veh, FOXP1 / RFU, CARD8 / Fold change vs veh, CARD8 / RFU, STRN3 / Fold change vs veh, STRN3 / RFU, ADK / Fold change vs veh, ADK / RFU, RASSF2 / Fold change vs veh, RASSF2 / RFU, WIPF1 / Fold change vs veh, WIPF1 / RFU, LARP1B / Fold change vs veh, LARP1B / RFU, RASA1 / Fold change vs veh, RASA1 / RFU, RB1 / Fold change vs veh, RB1 / RFU, PPFIA1 / Fold change vs veh, PPFIA1 / RFU, MAT2A / Fold change vs veh, MAT2A / RFU, CCT5 / Fold change vs veh, CCT5 / RFU, WDR92 / Fold change vs veh, WDR92 / RFU, CUX1 / Fold change vs veh, CUX1 / RFU, TTC7A / Fold change vs veh, TTC7A / RFU, TMEM135 / Fold change vs veh, TMEM135 / RFU, DEPTOR / Fold change vs veh, DEPTOR / RFU, CPM / Fold change vs veh, CPM / RFU, DNAJB6 / Fold change vs veh, DNAJB6 / RFU, CACNA2D3 / Fold change vs veh, CACNA2D3 / RFU, DTX4 / Fold change vs veh, DTX4 / RFU, TFCP2 / Fold change vs veh, TFCP2 / RFU, GMCL1 /// GMCL1P1 / Fold change vs veh, GMCL1 /// GMCL1P1 / RFU, AEBP2 / Fold change vs veh, AEBP2 / RFU, SNHG1 /// SNORD22 /// SNORD25 /// SNORD26 /// SNORD27 /// SNORD28 /// SNORD29 /// SNORD31 / Fold change vs veh, SNHG1 /// SNORD22 /// SNORD25 /// SNORD26 /// SNORD27 /// SNORD28 /// SNORD29 /// SNORD31 / Fold change (Aza/veh), C12orf56 (ProbeSet 11735607_a_at) / Fold change (ACY-1035/veh), C12orf56 (ProbeSet 11735607_a_at) / Fold change (Aza/veh), FGFR1OP (ProbeSet 11751329_s_at) / Fold change (ACY-1035/veh), FGFR1OP (ProbeSet 11751329_s_at) / Fold change (Aza/veh), VPS36 (ProbeSet 11739960_a_at) / Fold change (ACY-1035/veh), VPS36 (ProbeSet 11739960_a_at) / RFU SYPL1 (11715823_x_at) / Fold change /veh SYPL1 (11715823_x_at) / RFU IGFBP7 (11715501_s_at) / Fold change /veh IGFBP7 (11715501_s_at) / RFU REEP3 (11722064_at) / Fold change /veh REEP3 (11722064_at) / RFU IGLL1 (11728026_x_at) / Fold change /veh IGLL1 (11728026_x_at): dose or concentration left out as unconfirmed
Settings: MV-4-11 cells, 48 hours

In the case of `Nc1ncn([C@@H]2O[C@H](CO)[C@@H](O)[C@H]2O)c(=O)n1` [azacitidine], the “Fold change /veh CASKIN2 (11723855_a_at)” value is reported as 1.13.
